Results from patent US4548922A, “Drug administration” (Beth Israel Hospital, priority 1983, dated 1985).

Experiment: k' factor value (hydrophobicity) by high-performance liquid column chromatography on octadecylsilane column
Assay type: physicochemical
Details: unconjugated steroid; 75% methanol in water, apparent pH 5.0, octadecylsilane column
Procedure: Preferably the steroid used in the invention is characterized in that the unconjugated derivative of the steroid is retained on a hydrophobic column for a length of time sufficient to produce a k' factor value of at least 7, the k' factor value being obtained by subjecting a monomeric solution of 1 mg/ml of such steroid derivative to high-performance liquid column chromatography at 3,000 psi, using a 250×4.6 mm column having octadecylsilane-coated 5 μm micro silica particles as the stationary phase and a mobile phase, delivered at 1.0 ml/min., consisting of 75% methanol in water, v/v, buffered with 0.005 M KH2 PO4 /H3 PO4 to give an apparent pH value, as measured using a glass electrode, of 5.0, the k' factor value being defined by k'=(tr -t0)/t0, where t0 is the retention time in the column of the solvent front and tr is the retention time in the column of the steroid derivative as measured by obtaining the elution profile of the steroid derivative by absorbance at 210 nm.
The structure of the steroid molecule affects its chemical properties and thus its functioning as a drug transporting molecule. We believe that all of the steroid molecules used in the invention facilitate transport by self-associating to form reversed micelles within the membrane across which the drug is being transported; these reversed micelles, it is believed, function as pores, allowing the drug to pass through. A measure of the ability of a given steroid molecule's ability to form such reversed micelles is the hydrophobicity of the unconjugated form of the molecule, a property which can be quantified using the k' factor value, which is computed by observing the steroid's retention time in a high-performance liquid chromatography (HPLC) column under the conditions described above. As mentioned above, the k' factor value of the unconjugated derivative of the steroid should be at least 7 for the steroid to be suitable in the therapeutic compositions of the invention.

| k' factor value | Structure (SMILES) |
| --- | --- |
| 9.5 | CC(=O)O[C@@H]1[C@H]2[C@H](C)[C@H](O)CC[C@]2(C)[C@@H]2CC[C@H]3/C(=C(\CCC=C(C)C)C(=O)O)[C@@H](OC(C)=O)C[C@]3(C)[C@@]2(C)[C@H]1O [cephalosporin P1] |
| 4.7 | C[C@H](CCC(=O)O)[C@H]1CC[C@H]2[C@@H]3[C@@H](O)C[C@@H]4C[C@H](O)CC[C@]4(C)[C@H]3CC[C@]12C [ursodeoxycholic acid] |

| Structure (SMILES) | k' factor value |
| --- | --- |
| CC(=O)O[C@H]1C[C@@]2(C)[C@@H](CC[C@H]3[C@@]4(C)C=CC(=O)[C@@H](C)[C@@H]4[C@H](OC(C)=O)C(=O)[C@@]32C)/C1=C(\CCC=C(C)C)C(=O)O [helvolic acid] | 4.7 |
